From US6967196B1, “Sulfonamide compounds and uses thereof” (Bristol-Myers Squibb Company, priority 1999, dated 2005)
Structures can show the parent of a compound that is named as a salt. Where two headings read alike, the source gives them in different places. Each block holds one compound with its values, some of them ahead of it.

System: amyloid β production in transfected H4 (human neuroglioma) cells stably expressing APP constructs
Assay: In vitro cell-based assay of inhibitors of amyloid β production (ELISA)
Settings: amyloid β in medium by ELISA
Procedure, shortened: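 Aβ secreted into the medium was determined by a two-antibody ELISA specific for the Aβ C-terminus, calibrated with known Aβ amounts. Before that, compounds (10-100 μM initially) were left on the cells for roughly 16 hours.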

[1] = Homo sapiens, 16 h, transfected H4 cells stably expressing APP, approximately 16 hours incubation, read-out: ACTIVITY (IC50, inhibition of amyloid β production)
[2] = transfected H4 cells stably expressing APP, approximately 16 hours incubation, read-out: ACTIVITY (IC50, inhibition of amyloid β production)
[3] = transfected H4 cells stably expressing APP constructs, approximately 16 hours incubation, read-out: ACTIVITY (IC50, inhibition of amyloid β production)
[4] = Homo sapiens, 16 h, transfected H4 cells expressing APP, approximately 16 hours incubation, read-out: ACTIVITY (IC50, inhibition of amyloid β production)
[5] = transfected H4 cells stably expressing APP, approx. 16 h incubation, read-out: ACTIVITY (IC50, inhibition of amyloid β production)
[6] = Homo sapiens, 16 h, transfected H4 cells stably expressing APP, approximately 16 hours incubation, Table B, read-out: ACTIVITY (IC50, inhibition of amyloid β production)

Compound: CC(C)SCCC[C@@H](C)N(c1cc(Cl)ccc1CO)S(=O)(=O)c1ccc(Cl)cc1 [Example 1223]
IC50 [3]: ≤ 25 nM

Compound: C[C@H](CCS(=O)(=O)CC(=O)O)N(c1cc(Cl)ccc1Cl)S(=O)(=O)c1ccc(Cl)cc1 [Example 1197, (6R)-6-[(2,5-dichlorophenyl)-[(4-chlorophenyl)sulfonyl]-amino]-3-thioheptanoic acid, 3,3-dioxide]
IC50 [3]: > 500 nM

Compound: C[C@H](C(=O)NCCN1CCCCC1)N(c1cc(Cl)ccc1F)S(=O)(=O)c1ccc(Cl)cc1 [Example 1352]
IC50 [4]: > 500 nM

Compound: O=C(c1ccccc1F)N1CCCCC1CCOc1ccccc1CN(c1cc(F)ccc1F)S(=O)(=O)c1ccc(Cl)cc1 (stereo not shown) [Example 787]
IC50 [5]: 100 to 500 nM

Compound: CCSCCC[C@@H](C)N(c1cc(F)ccc1F)S(=O)(=O)c1ccc(Cl)cc1 [Example 1177, 4-chloro-N-[2,5-difluorophenyl]-N-[1(R)-methyl-(4-ethylthio)butyl]benzenesulfonamide]
IC50 [3]: ≤ 25 nM

Compound: CC(c1ccccc1OCCCn1ccnc1)N(c1cc(F)ccc1F)S(=O)(=O)c1ccc(Cl)cc1 (stereo not shown) [Example 1046, 4-chloro-N-(2,5-difluorophenyl)-N-(1-{2-[3-(1H-imidazol-1-yl)propoxy]phenyl}ethyl)benzenesulfonamide hydrochloride]
IC50 [1]: > 500 nM

Compound: CC(C)N(CCCn1ccnc1)C(=O)OC[C@@H](C)N(c1cc(Cl)ccc1CO)S(=O)(=O)c1ccc(Cl)cc1 [Example 1252, 4-Chloro-N-[5-chloro-2-(hydroxymethyl)phenyl]-N-[2-[[[N′-[3-(1H-imidazol-1-yl)propyl]-N′-(2-methylethyl)amino]carbonyl]oxy]-(R)-1-methylethyl]benzenesulfonamide]
IC50 [3]: ≤ 25 nM

Compound: CC(c1ccccc1OCCCN(C)S(=O)(=O)c1ccc([N+](=O)[O-])cc1)N(c1cc(F)ccc1F)S(=O)(=O)c1ccc(Cl)cc1 (stereo not shown) [Example 410, 4-chloro-N-(2,5-difluorophenyl)-N-{1-[2-(3-{methyl[(4-nitrophenyl)sulfonyl]amino}propoxy)phenyl]ethyl}benzenesulfonamide]
IC50 [6]: 50 to 100 nM

Compound: C[C@H](c1ccccc1OCCCN1CCCCC1)N(c1cc(F)ccc1F)S(=O)(=O)c1ccc(Cl)cc1 [Example 1061, 4-chloro-N-(2,5-difluorophenyl)-N-((1R)-1-{2-[3-(1-piperidinyl)propoxy]phenyl}ethyl)benzenesulfonamide hydrochloride]
IC50 [1]: > 500 nM

Compound: CCS(=O)(=O)CCC[C@@H](C)N(c1cc(Cl)ccc1CO)S(=O)(=O)c1ccc(Cl)cc1 [Example 1217, 4-chloro-N-[5-chloro-2-(hydroxymethyl)phenyl]-N-[1(R)-methyl-(4-ethylsulfonyl)butyl]benzenesulfonamide]
IC50 [3]: ≤ 25 nM

Compound: CC(CNC(=O)OCCc1ccccc1[C@@H](C)N(c1cc(F)ccc1F)S(=O)(=O)c1ccc(Cl)cc1)c1ccccc1 (stereo partly drawn) [Example 402, 2-[2-((1R)-1-{[(4-chlorophenyl)sulfonyl]-2,5-difluoroanilino}ethyl)phenyl]ethyl 2-phenylpropylcarbamate]
IC50 [6]: 50 to 100 nM

Compound: (R)-4-Chloro-N-(2,5-difluorophenyl)-N-[1-[4-fluoro-2-[1-(2-methyl-4-thiomorpholinyl)butanoyl]phenyl]ethyl]benzenesulfonamide [Example 1276]
IC50 [3]: ≤ 25 nM

Compound: CC(C)[S+]([O-])CCC[C@@H](C)N(c1cc(Cl)ccc1CO)S(=O)(=O)c1ccc(Cl)cc1 (stereo partly shown) [Example 1219]
IC50 [3]: ≤ 25 nM

Compound: N-{3-[2-({[(4-chlorophenyl)sulfonyl]-2,5-difluoroanilino}methyl)phenoxy]propyl}-3,4-dimethoxy-N-methylbenzamide [Example 960]
IC50 [2]: > 500 nM

The remaining lines, values ahead:

IC50 [1]: > 500 nM
Compound: O=S(=O)(c1ccc(Cl)cc1)N(Cc1ccccc1OCCCNC1CCCCC1)c1ccccc1 [Example 996, 4-chloro-N-{2-[3-(cyclohexylamino)propoxy]benzyl}-N-phenylbenzenesulfonamide hydrochloride]

IC50 [2]: > 500 nM
Compound: 3,5-dichloro-N-{3-[2-({[(4-chlorophenyl)sulfonyl]-2,5-difluoroanilino}methyl)phenoxy]propyl}-N-methylbenzamide [Example 1002]

IC50 [4]: 100 to 500 nM
Compound: C[C@H](C(=O)NCCc1ccncc1)N(c1cc(Cl)ccc1F)S(=O)(=O)c1ccc(Cl)cc1 [Example 1304]

IC50 (Table B, transfected H4 cells stably expressing APP, approximately 16 hours incubation, read-out: ACTIVITY (inhibitory concentration IC50, inhibition of amyloid β production)): ≤ 25 nM
Compound: CS(=O)(=O)C[C@H]1CCCN1 [Example 68]

IC50 [1]: > 500 nM
Compound: O=S(=O)(c1ccc(Cl)cc1)N(Cc1ccccc1OCCCSc1ccccc1)c1cc(F)ccc1F [Example 982, 4-chloro-N-(2,5-difluorophenyl)-N-{2-[3-(phenylsulfanyl)propoxy]benzyl}benzenesulfonamide]

IC50 [2]: 100 to 500 nM
Compound: N-{3-[2-(1-{[(4-chlorophenyl)sulfonyl]-2,5-difluoroanilino}ethyl)phenoxy]propyl}-3,5-difluorobenzamide [Example 815]

IC50 [5]: 100 to 500 nM
Compound: CCCCC(=O)N(C)CCCOc1ccccc1CN(c1cc(F)ccc1F)S(=O)(=O)c1ccc(Cl)cc1 [Example 717, N-{3-[2-({[(4-chlorophenyl)sulfonyl]-2,5-difluoroanilino}methyl)phenoxy]propyl}-N-methylpentamide]

IC50 [2]: 100 to 500 nM
Compound: N-{3-[2-({[(4-chlorophenyl)sulfonyl]-2,5-difluoroanilino}methyl)phenoxy]propyl}-N-methyl-4-nitrobenzamide [Example 872]

IC50 [1]: 100 to 500 nM
Compound: O=S(=O)(c1ccc(Cl)cc1)N(Cc1ccccc1OCCCN1CCCCC1)C1CCCCC1 [Example 852, 4-chloro-N-cyclohexyl-N-{2-[3-(1-piperidinyl)propoxy]benzyl}benzenesulfonamide hydrochloride]

IC50 [5]: 100 to 500 nM
Compound: 4-chloro-N-{3-[2-(1-{[(4-chlorophenyl)sulfonyl]-2,5-difluoroanilino}ethyl)phenoxy]propyl}-N-methylbenzamide [Example 722]

IC50 [5]: 100 to 500 nM
Compound: N-{2-[2-(1-{[(4-chlorophenyl)sulfonyl]-2,5-difluoroanilino}ethyl)phenoxy]ethyl}-N-methylpentanamide [Example 664]

IC50 (Homo sapiens, 16 h, transfected H4 cells stably expressing APP constructs, approximately 16 hours incubation, read-out: ACTIVITY (IC50, inhibition of amyloid β production)): ≤ 25 nM
Compound: C[C@H](CCCS(N)(=O)=O)N(c1cc(Cl)ccc1CO)S(=O)(=O)c1ccc(Cl)cc1 [Example 1235, 4-chloro-N-[5-chloro-2-(hydroxymethyl)phenyl]-N-[4-(aminosulfonyl)-1(R)-methylbutyl]benzenesulfonamide]

IC50 [1]: 100 to 500 nM
Compound: Cc1ccccc1N(Cc1ccccc1OCCCN1CCCCC1)S(=O)(=O)c1ccc(Cl)cc1 [Example 875, 4-chloro-N-(2-methylphenyl)-N-{2-[3-(1-piperidinyl)propoxy]benzyl}benzenesulfonamide hydrochloride]

IC50 [1]: > 500 nM
Compound: O=S(=O)(c1ccc(Cl)cc1)N(Cc1ccccc1OCCCN1CCCCC1)C1CC1 [Example 1003, 4-chloro-N-cyclopropyl-N-{2-[3-(1-piperidinyl)propoxy]benzyl}benzenesulfonamide hydrochloride]

IC50 [4]: ≤ 25 nM
Compound: CNC(=O)OC[C@@H](C)N(c1cc(Cl)ccc1CO)S(=O)(=O)c1ccc(Cl)cc1 [Example 1280]

IC50 [4]: > 500 nM
Compound: CCN(CC)CCCC(C)NC(=O)[C@@H](C)N(c1cc(Cl)ccc1F)S(=O)(=O)c1ccc(Cl)cc1 (stereo partly shown) [Example 1312]

IC50 [2]: 100 to 500 nM
Compound: N-{3-[2-({[(4-chlorophenyl)sulfonyl]-2,5-difluoroanilino}methyl)phenoxy]propyl}-3-fluoro-N-methylbenzamide [Example 862]
